Assay results: patent US10640492B2, “Tubulin inhibitor” (SHENZHEN NEPTUNUS PHARMACEUTICAL RESEARCH INSTITUTE CO., …, priority 2016, dated 2020)
Like-named read-outs stand apart in the source and are kept apart here.

Legend:
neutrophil count [1] = assay: Effect on the neutrophil count at equivalent pharmacodynamic dose; conditions: rats, continuous administration for two weeks (FIG. 3)
Text: (§1) Multiple doses of different drugs were administrated to the nude mice respectively and the potency of the drugs in inhibiting the transplanted tumor in the nude mice was investigated. Base on the investigation, the equivalent dose of each drug was identified and converted to rat dose before administrated to the rats. That is, by administrating the rats with relatively equivalent pharmacodynamic dose, the effect of the drugs on the neutrophil count was examined. After continuously administration for two weeks, blood samples were collected and neutrophil counts were measured (FIG. 3).

[2] = system: drug-resistant MES-SA cells (p-glycoprotein induced); assay: Inhibitory effect on tumor proliferation, drug-resistant MES-SA transplanted tumor; format: in vivo; conditions: drug-resistant MES-SA nude mice, dose that does not reduce body weight, vs blank vehicle (FIG. 1)
Protocol: MES-SA cells (derived from ATCC) were cultured in low concentration of adriamycin for a long time to maintain sufficient cell viability and induced the expression of p-glycoprotein. After culturing for 10 months, the results of induced expression were detected by WB. After successful induction, the cells were cultured for one week in adriamycin-free medium. The tumor cells with adjusted concentration were inoculated into the armpit of nude mice. The transplanted tumors were treated with different drugs when they grew to a certain volume. Different doses of different drugs were administrated to blank mice to explore the drug dose not affecting the body weight of the animals, namely the dose to be administrated to treat the animals with transplanted tumors.

[3] = system: tumor cells inoculated in nude mice
Protocol: The nude mice inoculated with tumor cells were administrated with blank vehicle, docetaxel, compound 17 as well as the combination drug of docetaxel and compound 17. The tumor volume was measured at different time period after the administration and the change of tumor volume was evaluated. At the same time, the change of body weight of the nude mice was examined to evaluate the antitumor effect and the toxicity degree of the drug. In addition, based on the above administration and grouping methods, the blood neutrophil count level for normal SD rats was measured before administration and after the final administration to evaluate the influence of the drug on neutrophil counts.

blood neutrophil count = assay: Neutrophil count after compound 17 in combination with docetaxel; format: in vivo; conditions: normal SD rats, after final administration (FIG. 2C)
neutrophil count [4] = conditions: rat, in vivo
Text: as §1

[5] = Stability investigation (10-day accelerated stress testing)
Protocol: The tested conditions included 40° C., 60° C., humidity 75%, humidity 92.5%, and light. And under each condition, moisture, purity, maximum single impurity and total impurity of the compound tested were compared to that of day 0.

[6] = system: HT-1080 human fibrosarcoma cell strain
Protocol: (§2) To test the cytotoxic IC50 values of 14 candidate compounds against 5 cell strains (MDA-MB-231, HT-1080, AGS, A-673 & HUVEC) using a CCK-8 test kit.
(§3) a) The compound was serially diluted with DMSO starting from 0.5 μM, using twice echelon dilution.
(§4) The logarithmic growth phase cells were collected and counted. The cells were re-suspended in complete medium, whose concentration was adjusted according to the test results of the cell density optimization, and then seeded into 96-well plates with 100 μl of the cell suspension to each well. The cells were incubated in a 37° C., 100% relative humidity, 5% CO2 incubator for 24 hours.
(§5) b) The test compound was diluted with the medium to the corresponding action concentrations set up, and added into the cells in the plates at 25 μl/well. The test compound was prepared in 9 final action concentrations, which were obtained by sequentially diluted from 500 nM using twice echelon dilution.
(§6) c) The cells were incubated in a 37° C., 100% relative humidity, 5% CO2 incubator for 72 hours.
(§7) d) The medium was removed from the cells, and a complete medium containing 10% CCK-8 was added and incubated in a 37° C. incubator for 1-4 hours.
(§8) e) After gentle shaking, the absorbance at 450 nm of the sample was measured on a SpectraMax M5 Microplate Reader, and the inhibition ratio was calculated using the absorbance at 650 nm as reference.
(§9) The inhibition ratio of the drug on tumor cell growth was calculated as follows: tumor cell growth inhibition %=[(Ac−As)/(Ac−Ab)]×100%
(§10) The IC50 curve was fitted and the IC50 value was calculated using the software Graphpad Prism 5 and using the calculation formula log(inhibitor) vs. normalized response-variable slope or log(inhibitor) vs. response-variable slope.

[7] = system: blood flow distribution in tissues and tumor tissue; assay: Blood flow distribution of tissues and tumor; format: in vivo, nude mice; conditions: two hours after administration, same pharmacodynamic dose, vs blank vehicle
Text: In this example, the effects of drugs on blood flow distribution of different tissues and organs at the same pharmacodynamic dose were simultaneously tested.

[8] = system: A-673 human rhabdomyosarcoma cell strain
Protocol: as §2, §3, §4, §5, §6, §7, §8, §9, §10

[9] = system: AGS human gastric adenocarcinoma cell strain
Protocol: (§11) AGS human gastric adenocarcinoma cell strain (purchased from Shanghai Cell Resource Center, Chinese Academy of Sciences)
as §3, §4, §5, §6, §7, §8, §9, §10

[10] = system: MDA-MB-231 human breast cancer cell strain
Protocol: as §2
(§12) MDA-MB-231 human breast cancer cell strain (purchased from Shanghai Cell Resource Center, Chinese Academy of Sciences)
as §3, §4, §5, §6, §7, §8, §9, §10

[11] = system: HUVEC human umbilical vein endothelial cell strain
Protocol: (§13) HUVEC human umbilical vein endothelial cell strain (purchased from ScienCell Research Laboratories, Cat #8000, Lot #11233)
as §3, §4, §5, §6, §7, §8, §9, §10

[12] = system: HT-1080 human fibrosarcoma cell strain; assay: CCK-8 cytotoxicity IC50, HT-1080; conditions: HT-1080, 72 h, read-out: cytotoxicity IC50
Protocol: as §2, §3, §4, §5, §6, §7, §8, §9, §10

tubulin in HuVEC cells = assay: Action on microtubule function, α-tubulin staining in HuVEC; format: cell-based, human; conditions: 2 μM, 30 minutes, vs DMSO control
Text: Human umbilical vein endothelial cells (HuVEC from Cambrex) were used in this study.

[13] = system: AGS human gastric adenocarcinoma cell strain; assay: CCK-8 cytotoxicity IC50, AGS; conditions: 72 h, read-out: cytotoxicity IC50
Protocol: as §11, §3, §4, §5, §6, §7, §8, §9, §10

[14] = system: A-673 human rhabdomyosarcoma cell strain; assay: CCK-8 cytotoxicity IC50, A-673; conditions: A673, 72 h, read-out: cytotoxicity IC50
Protocol: as §2, §3, §4, §5, §6, §7, §8, §9, §10

[15] = system: MDA-MB-231 human breast cancer cell strain; assay: CCK-8 cytotoxicity IC50, MDA-MB-231; conditions: MDA-MB-231, 72 h, read-out: cytotoxicity IC50
Protocol: as §2, §12, §3, §4, §5, §6, §7, §8, §9, §10

[16] = CCK-8 cytotoxicity IC50, HUVEC; conditions: human, HUVEC umbilical vein endothelial cells
Protocol: as §13, §3, §4, §5, §6, §7, §8, §9, §10

[17] = Day 10, sample 1 (no stress condition given)

CC(=O)O[C@@]12CO[C@@H]1C[C@H](O)[C@@]1(C)C(=O)[C@H](O)C3=C(C)[C@@H](OC(=O)[C@H](O)[C@@H](NC(=O)OC(C)(C)C)c4ccccc4)C[C@@](O)([C@@H](OC(=O)c4ccccc4)[C@H]21)C3(C)C [docetaxel, reference compound]
neutrophil count (neutrophil count [1]): can significantly reduce the neutrophil count
anti-tumor proliferation effect (tumor weight) [2]: relatively poor pharmacodynamic effect
change of body weight (toxicity) ([3]; mouse, in vivo): weight loss of animals caused by the toxicity of docetaxel
blood neutrophil count (blood neutrophil count): neutrophil count decrease caused by docetaxel

C=CC(C)(C)c1[nH]cnc1/C=C1\NC(=O)[C@H](Cc2ccccc2)NC1=O [(−)phenylahistin, reference compound]
neutrophil count (neutrophil count [4]): significantly lower than blank vehicle group
Content ([5]; 40° C., day 5): 97.86%
Maximum single impurity ([5]; 40° C., day 5): 0.73 RRT: 0.58) %
Content ([5]; 40° C., day 10): 98.36%
Maximum single impurity ([5]; 40° C., day 10): 1.22 (RRT: 0.58) %
Content ([5]; 60° C., day 5): 95.77%
Maximum single impurity ([5]; 60° C., day 5): 2.84 (RRT: 0.24) %
Content ([5]; 60° C., day 10): 93.45%
Maximum single impurity ([5]; 60° C., day 10): 3.97 (RRT: 0.24) %
Content ([5]; Day 0): 99.37%
Maximum single impurity ([5]; Day 0): 0.39 (RRT: 0.58) %
anti-tumor proliferation effect (tumor weight) [2]: almost had no effect against tumor proliferation
IC50 [6]: > 600 nM
distribution of blood flow in tissues except tumor tissues [7]: did not significantly affect the distribution of blood flow in tissues except tumor tissues
intratumoral blood flow distribution [7]: can significantly reduce the intratumoral blood flow distribution
IC50 [8]: > 600 nM
IC50 [9]: > 600 nM
IC50 [10]: > 600 nM
IC50 [11]: > 600 nM

CC(C)(C)c1[nH]cnc1/C=c1\[nH]c(=O)/c(=C/C=C/c2cc(F)ccc2Cl)[nH]c1=O [Compound 17]
IC50 [12]: 14.6 nM
cell membrane blebbing (tubulin in HuVEC cells): induced
microtubule depolymerization (tubulin in HuVEC cells): induced
stability, overall finding ([5]; 10-day accelerated test: 40° C., 60° C., humidity 75%, humidity 92.5%, light): stable
Content ([5]; Day 0): 99.8%
Maximum single impurity ([5]; Day 0): 0.03 (RRT: 0.31) %
Moisture ([5]; Day 0): 0.1%
Total impurity ([5]; Day 0): 0.06%
Content ([5]; Day 5, 40° C.): 100.9%
Maximum single impurity ([5]; Day 5, 40° C.): 0.02 (RRT: 0.31) %
Moisture ([5]; Day 5, 40° C.): 0.1%
Total impurity ([5]; Day 5, 40° C.): 0.05%
Content ([5]; Day 5, 60° C.): 99.0%
Maximum single impurity ([5]; Day 5, 60° C.): 0.03 (RRT: 0.31) %
Moisture ([5]; Day 5, 60° C.): 0.2%
Total impurity ([5]; Day 5, 60° C.): 0.06%
Content ([5]; Day 5, humidity 75%): 99.5%
Maximum single impurity ([5]; Day 5, humidity 75%): 0.02 (RRT: 0.32) %
Moisture ([5]; Day 5, humidity 75%): 0.2%
Total impurity ([5]; Day 5, humidity 75%): 0.07%
Content ([5]; Day 5, humidity 92.5%): 99.5%
Maximum single impurity ([5]; Day 5, humidity 92.5%): 0.02 (RRT: 0.31) %
Moisture ([5]; Day 5, humidity 92.5%): 0.3%
Total impurity ([5]; Day 5, humidity 92.5%): 0.07%
Content ([5]; Day 5, light): 100.3%
Maximum single impurity ([5]; Day 5, light): 0.04 (RRT: 0.31) %
Moisture ([5]; Day 5, light): 0.1%
Total impurity ([5]; Day 5, light): 0.07%
Content ([5]; Day 10, 40° C.): 100.5%
Maximum single impurity ([5]; Day 10, 40° C.): 0.04 (RRT: 0.31) %
Moisture ([5]; Day 10, 40° C.): 0.1%
Total impurity ([5]; Day 10, 40° C.): 0.07%
Content ([5]; Day 10, 60° C.): 99.7%
Maximum single impurity ([5]; Day 10, 60° C.): 0.03 (RRT: 0.31) %
Moisture ([5]; Day 10, 60° C.): 0.2%
Total impurity ([5]; Day 10, 60° C.): 0.08%
Content ([5]; Day 10, humidity 75%): 99.0%
Maximum single impurity ([5]; Day 10, humidity 75%): 0.04 (RRT: 0.31) %
Moisture ([5]; Day 10, humidity 75%): 0.2%
Total impurity ([5]; Day 10, humidity 75%): 0.11%
Content ([5]; Day 10, humidity 92.5%): 99.4%
Maximum single impurity ([5]; Day 10, humidity 92.5%): 0.03 (RRT: 0.31) %
Moisture ([5]; Day 10, humidity 92.5%): 0.3%
Total impurity ([5]; Day 10, humidity 92.5%): 0.08%
Content ([5]; Day 10, light): 99.6%
Maximum single impurity ([5]; Day 10, light): 0.04 (RRT: 0.31) %
Moisture ([5]; Day 10, light): 0.1%
Total impurity ([5]; Day 10, light): 0.09%
Content [5, 17]: 100.4%
Maximum single impurity [5, 17]: 0.03 (RRT: 0.31) %
Moisture [5, 17]: 0.1%
Total impurity [5, 17]: 0.08%
neutrophil count (neutrophil count [1]): had no obvious effect on neutrophils
IC50 [13]: 10.8 nM
anti-tumor proliferation effect (tumor weight) [2]: can effectively exert anti-tumor proliferation effects
IC50 [14]: 7.25 nM
distribution of blood flow in tissues except tumor tissues [7]: did not significantly affect the distribution of blood flow in tissues except tumor tissues
intratumoral blood flow distribution [7]: can significantly reduce the intratumoral blood flow distribution
IC50 [15]: 20.4 nM
inhibition of tumor proliferation (tumor volume) ([3]; nude mice inoculated with tumor cells (FIG. 2A)): can effectively inhibit the proliferation of tumor in vivo
IC50 at 72 h [16]: 35 nM
